In general, EC50 refers to the concentration needed to bring the measured effect to its halfway point. By Tm is commonly meant the temperature at the midpoint of the melting transition.

Residues, ends and D or L forms follow the SMILES beside them.

The test system of assay [1] is Human immunodeficiency virus 1. Briefly: Antiviral activity against HIV1 NL4-3 harboring gp41 D36G mutant infected in human HeLa cells expressing CD4-LTR-beta-gal assessed as inhibition of viral replication after 48 hrs by MAGI assay. The assay is classed as functional, organism-based.
The subject of assay [2] is Human immunodeficiency virus 1. Briefly: Binding affinity to HIV1 His-tagged N-terminal heptad repeat of envelope glycoprotein gp41 assessed as recovery of N54-drug complex after 2 hrs by LC-MS analysis. More on the design: concentration or dose not given beside the values.
Assay [3] relates to Human immunodeficiency virus 1. Briefly: Thermal stability of HIV1 envelope glycoprotein gp41 His-tagged N-terminal heptad repeat N54-drug complex assessed as thermal unfolding transition state by measuring molar ellipticity at 4 to 90 degC by circular dichroic spectra analysis.

In the case of `CC[C@H](C)[C@H](NC(=O)[C@H](CC(C)C)NC(=O)[C@H](CCC(=O)O)NC(=O)[C@H](CCC(=O)O)NC(=O)[C@@H](NC(=O)[C@H](CC(C)C)NC(=O)[C@H](CO)NC(=O)[C@@H](NC(=O)[C@H](Cc1ccc(O)cc1)NC(C)=O)[C@@H](C)O)[C@@H](C)CC)C(=O)N[C@@H](CCCCN)C(=O)N[C@@H](CCCCN)C(=O)N[C@@H](Cc1cnc[nH]1)C(=O)N[C@@H](CCC(=O)O)C(=O)N[C@@H](CCC(=O)O)C(=O)N[C@@H](CCC(N)=O)C(=O)N[C@@H](CCC(N)=O)C(=O)N[C@@H](CCCCN)C(=O)N[C@@H](CCCCN)C(=O)N[C@@H](CC(N)=O)C(=O)N[C@@H](CCC(=O)O)C(=O)N[C@@H](CCC(=O)O)C(=O)N[C@@H](CCC(=O)O)C(=O)N[C@@H](CC(C)C)C(=O)N[C@@H](CCCCN)C(=O)N[C@@H](CCCCN)C(=O)N[C@@H](CC(C)C)C(=O)N[C@@H](CCC(=O)O)C(=O)N[C@@H](CCC(=O)O)C(=O)N[C@@H](Cc1c[nH]c2ccccc12)C(=O)N[C@@H](C)C(=O)N[C@@H](CCCCN)C(=O)N[C@@H](CCCCN)C(=O)N[C@@H](Cc1c[nH]c2ccccc12)C(=O)N[C@@H](CC(N)=O)C(=O)N[C@@H](Cc1c[nH]c2ccccc12)C(=O)N[C@@H](Cc1ccccc1)C(N)=O` (Ac-YTSLIEELIKKHEEQQKKNEEELKKLEEWAKKWNWF-NH2), the EC50 in assay [1] worked out at 35 nM. Besides, the Activity in assay [2] turned out to be 3.2%. In addition, the Tm in assay [3] was found to be 58.5 °C.
For `CC[C@H](C)[C@H](NC(=O)[C@H](CC(C)C)NC(=O)[C@H](CCC(=O)O)NC(=O)[C@H](CCC(=O)O)NC(=O)[C@@H](NC(=O)[C@H](CC(C)C)NC(=O)[C@H](CO)NC(=O)[C@@H](NC(=O)[C@H](Cc1ccc(O)cc1)NC(C)=O)[C@@H](C)O)[C@@H](C)CC)C(=O)N[C@@H](CCCCN)C(=O)N[C@@H](CCCCN)C(=O)N[C@@H](CO)C(=O)N[C@@H](CCC(=O)O)C(=O)N[C@@H](CCC(=O)O)C(=O)N[C@@H](CCCNC(=N)N)C(=O)N[C@@H](CCC(N)=O)C(=O)N[C@@H](CCCCN)C(=O)N[C@@H](CCCCN)C(=O)N[C@@H](CC(N)=O)C(=O)N[C@@H](CCC(=O)O)C(=O)N[C@@H](CCC(=O)O)C(=O)N[C@@H](CCC(=O)O)C(=O)N[C@@H](CC(C)C)C(=O)N[C@@H](CCCCN)C(=O)N[C@@H](CCCCN)C(=O)N[C@@H](CC(C)C)C(=O)N[C@@H](CCC(=O)O)C(=O)N[C@@H](CCC(=O)O)C(=O)N[C@@H](Cc1c[nH]c2ccccc12)C(=O)N[C@@H](C)C(=O)N[C@@H](CCCCN)C(=O)N[C@@H](CCCCN)C(=O)N[C@@H](Cc1c[nH]c2ccccc12)C(=O)N[C@@H](CC(N)=O)C(=O)N[C@@H](Cc1c[nH]c2ccccc12)C(=O)N[C@@H](Cc1ccccc1)C(N)=O` (Ac-YTSLIEELIKKSEERQKKNEEELKKLEEWAKKWNWF-NH2) the same measures were 1.5 nM, 7.2% and 68.9 °C.
For `CC[C@H](C)[C@H](NC(=O)[C@H](CC(C)C)NC(=O)[C@H](CCC(=O)O)NC(=O)[C@H](CCC(=O)O)NC(=O)[C@@H](NC(=O)[C@H](CC(C)C)NC(=O)[C@H](CO)NC(=O)[C@@H](NC(=O)[C@H](Cc1ccc(O)cc1)NC(C)=O)[C@@H](C)O)[C@@H](C)CC)C(=O)N[C@@H](CCCCN)C(=O)N[C@@H](CCCCN)C(=O)N[C@H](C(=O)N[C@@H](CCC(=O)O)C(=O)N[C@@H](CCC(=O)O)C(=O)N[C@@H](CCC(N)=O)C(=O)N[C@@H](CCC(N)=O)C(=O)N[C@@H](CCCCN)C(=O)N[C@@H](CCCCN)C(=O)N[C@@H](CC(N)=O)C(=O)N[C@@H](CCC(=O)O)C(=O)N[C@@H](CCC(=O)O)C(=O)N[C@@H](CCC(=O)O)C(=O)N[C@@H](CC(C)C)C(=O)N[C@@H](CCCCN)C(=O)N[C@@H](CCCCN)C(=O)N[C@@H](CC(C)C)C(=O)N[C@@H](CCC(=O)O)C(=O)N[C@@H](CCC(=O)O)C(=O)N[C@@H](Cc1c[nH]c2ccccc12)C(=O)N[C@@H](C)C(=O)N[C@@H](CCCCN)C(=O)N[C@@H](CCCCN)C(=O)N[C@@H](Cc1c[nH]c2ccccc12)C(=O)N[C@@H](CC(N)=O)C(=O)N[C@@H](Cc1c[nH]c2ccccc12)C(=O)N[C@@H](Cc1ccccc1)C(N)=O)C(C)C` (Ac-YTSLIEELIKKVEEQQKKNEEELKKLEEWAKKWNWF-NH2) the same measures were 0.3 nM, 9.4% and 76 °C.
`CC[C@H](C)[C@H](NC(=O)[C@H](CC(C)C)NC(=O)[C@H](CCC(=O)O)NC(=O)[C@H](CCC(=O)O)NC(=O)[C@@H](NC(=O)[C@H](CC(C)C)NC(=O)[C@H](CO)NC(=O)[C@@H](NC(=O)[C@H](Cc1ccc(O)cc1)NC(C)=O)[C@@H](C)O)[C@@H](C)CC)C(=O)N[C@@H](CCCCN)C(=O)N[C@@H](CCCCN)C(=O)N[C@@H](CCC(N)=O)C(=O)N[C@@H](CCC(=O)O)C(=O)N[C@@H](CCC(=O)O)C(=O)N[C@@H](CCC(N)=O)C(=O)N[C@@H](CCC(N)=O)C(=O)N[C@@H](CCCCN)C(=O)N[C@@H](CCCCN)C(=O)N[C@@H](CC(N)=O)C(=O)N[C@@H](CCC(=O)O)C(=O)N[C@@H](CCC(=O)O)C(=O)N[C@@H](CCC(=O)O)C(=O)N[C@@H](CC(C)C)C(=O)N[C@@H](CCCCN)C(=O)N[C@@H](CCCCN)C(=O)N[C@@H](CC(C)C)C(=O)N[C@@H](CCC(=O)O)C(=O)N[C@@H](CCC(=O)O)C(=O)N[C@@H](Cc1c[nH]c2ccccc12)C(=O)N[C@@H](C)C(=O)N[C@@H](CCCCN)C(=O)N[C@@H](CCCCN)C(=O)N[C@@H](Cc1c[nH]c2ccccc12)C(=O)N[C@@H](CC(N)=O)C(=O)N[C@@H](Cc1c[nH]c2ccccc12)C(=O)N[C@@H](Cc1ccccc1)C(N)=O` (Ac-YTSLIEELIKKQEEQQKKNEEELKKLEEWAKKWNWF-NH2): the EC50 in assay [1] was found to be 7.9 nM. Further, in assay [2], the Activity was 2.2%. In addition, the Tm in assay [3] is 60 °C.
Consider `CC[C@H](C)[C@H](NC(=O)[C@H](CC(C)C)NC(=O)[C@H](CCC(=O)O)NC(=O)[C@H](CCC(=O)O)NC(=O)[C@@H](NC(=O)[C@H](CC(C)C)NC(=O)[C@H](CO)NC(=O)[C@@H](NC(=O)[C@H](Cc1ccc(O)cc1)NC(C)=O)[C@@H](C)O)[C@@H](C)CC)C(=O)N[C@@H](CCCCN)C(=O)N[C@@H](CCCCN)C(=O)N[C@@H](CO)C(=O)N[C@@H](CCC(=O)O)C(=O)N[C@@H](CCC(=O)O)C(=O)N[C@@H](CCSC)C(=O)N[C@@H](CCC(N)=O)C(=O)N[C@@H](CCCCN)C(=O)N[C@@H](CCCCN)C(=O)N[C@@H](CC(N)=O)C(=O)N[C@@H](CCC(=O)O)C(=O)N[C@@H](CCC(=O)O)C(=O)N[C@@H](CCC(=O)O)C(=O)N[C@@H](CC(C)C)C(=O)N[C@@H](CCCCN)C(=O)N[C@@H](CCCCN)C(=O)N[C@@H](CC(C)C)C(=O)N[C@@H](CCC(=O)O)C(=O)N[C@@H](CCC(=O)O)C(=O)N[C@@H](Cc1c[nH]c2ccccc12)C(=O)N[C@@H](C)C(=O)N[C@@H](CCCCN)C(=O)N[C@@H](CCCCN)C(=O)N[C@@H](Cc1c[nH]c2ccccc12)C(=O)N[C@@H](CC(N)=O)C(=O)N[C@@H](Cc1c[nH]c2ccccc12)C(=O)N[C@@H](Cc1ccccc1)C(N)=O` (Ac-YTSLIEELIKKSEEMQKKNEEELKKLEEWAKKWNWF-NH2), for which the EC50 in assay [1] was found to be 0.9 nM. In assay [2], the Activity turned out to be 9.2%. Also, in assay [3], the Tm is 74.6 °C.
The matching figures for `CC[C@H](C)[C@H](NC(=O)[C@H](CC(C)C)NC(=O)[C@H](CCC(=O)O)NC(=O)[C@H](CCC(=O)O)NC(=O)[C@@H](NC(=O)[C@H](CC(C)C)NC(=O)[C@H](CO)NC(=O)[C@@H](NC(=O)[C@H](Cc1ccc(O)cc1)NC(C)=O)[C@@H](C)O)[C@@H](C)CC)C(=O)N[C@@H](CCCCN)C(=O)N[C@@H](CCCCN)C(=O)N[C@@H](CO)C(=O)N[C@@H](CCC(=O)O)C(=O)N[C@@H](CCC(=O)O)C(=O)N[C@@H](C)C(=O)N[C@@H](CCC(N)=O)C(=O)N[C@@H](CCCCN)C(=O)N[C@@H](CCCCN)C(=O)N[C@@H](CC(N)=O)C(=O)N[C@@H](CCC(=O)O)C(=O)N[C@@H](CCC(=O)O)C(=O)N[C@@H](CCC(=O)O)C(=O)N[C@@H](CC(C)C)C(=O)N[C@@H](CCCCN)C(=O)N[C@@H](CCCCN)C(=O)N[C@@H](CC(C)C)C(=O)N[C@@H](CCC(=O)O)C(=O)N[C@@H](CCC(=O)O)C(=O)N[C@@H](Cc1c[nH]c2ccccc12)C(=O)N[C@@H](C)C(=O)N[C@@H](CCCCN)C(=O)N[C@@H](CCCCN)C(=O)N[C@@H](Cc1c[nH]c2ccccc12)C(=O)N[C@@H](CC(N)=O)C(=O)N[C@@H](Cc1c[nH]c2ccccc12)C(=O)N[C@@H](Cc1ccccc1)C(N)=O` (Ac-YTSLIEELIKKSEEAQKKNEEELKKLEEWAKKWNWF-NH2): 2.7 nM, 5.6% and 70.4 °C.
Regarding `CC[C@H](C)[C@H](NC(=O)[C@H](CC(C)C)NC(=O)[C@H](CCC(=O)O)NC(=O)[C@H](CCC(=O)O)NC(=O)[C@@H](NC(=O)[C@H](CC(C)C)NC(=O)[C@H](CO)NC(=O)[C@@H](NC(=O)[C@H](Cc1ccc(O)cc1)NC(C)=O)[C@@H](C)O)[C@@H](C)CC)C(=O)N[C@@H](CCCCN)C(=O)N[C@@H](CCCCN)C(=O)N[C@@H](CC(=O)O)C(=O)N[C@@H](CCC(=O)O)C(=O)N[C@@H](CCC(=O)O)C(=O)N[C@@H](CCC(N)=O)C(=O)N[C@@H](CCC(N)=O)C(=O)N[C@@H](CCCCN)C(=O)N[C@@H](CCCCN)C(=O)N[C@@H](CC(N)=O)C(=O)N[C@@H](CCC(=O)O)C(=O)N[C@@H](CCC(=O)O)C(=O)N[C@@H](CCC(=O)O)C(=O)N[C@@H](CC(C)C)C(=O)N[C@@H](CCCCN)C(=O)N[C@@H](CCCCN)C(=O)N[C@@H](CC(C)C)C(=O)N[C@@H](CCC(=O)O)C(=O)N[C@@H](CCC(=O)O)C(=O)N[C@@H](Cc1c[nH]c2ccccc12)C(=O)N[C@@H](C)C(=O)N[C@@H](CCCCN)C(=O)N[C@@H](CCCCN)C(=O)N[C@@H](Cc1c[nH]c2ccccc12)C(=O)N[C@@H](CC(N)=O)C(=O)N[C@@H](Cc1c[nH]c2ccccc12)C(=O)N[C@@H](Cc1ccccc1)C(N)=O` (Ac-YTSLIEELIKKDEEQQKKNEEELKKLEEWAKKWNWF-NH2), the EC50 in assay [1] came out at 330 nM. The Activity in assay [2] is 1.5%. The Tm in assay [3] is 56.5 °C.

These data come from ChEMBL document CHEMBL3390848, “Affinity selection and sequence-activity relationships of HIV-1 membrane fusion inhibitors directed at the drug-resistant variants” (Medchemcomm, 2010).
